Laboratory results taken from PubChem BioAssay AID1845200 (Molecular Pharmacology Branch, DTP, NCI, 2023).

Tested on: ASPS-1 complex tumor spheroids, viability
Test: Anticancer human tumor ASPS-1 cell line growth inhibition;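 further: spheroids exposed to agents for 7 days after 3 days of growth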;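 on viability, T/C: 100% = DMSO vehicle treated spheroids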
Details: for IC50: curve of first compound; for viability, T/C: stronger effect = lower value
How it was run: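 Complex tumor spheroids combined malignant cells with endothelial cells and mesenchymal stem cells. DNA-damaging drugs and DNA repair inhibitors were tested alone and in combination, at half-log dilutions down from clinical Cmax (top 10 microM if Cmax unknown), 0.25% DMSO final.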

[1] = second compound 30 pM, first compound 0.0316 µM
[2] = second compound 30 pM, first compound 0.1 µM
[3] = second compound 30 pM, first compound 0.316 µM
[4] = second compound 30 pM, first compound 1 µM
[5] = second compound 30 pM, first compound 3.16 µM
[6] = second compound 30 pM, first compound 10 µM
[7] = second compound 94.9 pM, first compound 0.0316 µM
[8] = second compound 94.9 pM, first compound 0.1 µM
[9] = second compound 94.9 pM, first compound 0.316 µM
[10] = second compound 94.9 pM, first compound 1 µM
[11] = second compound 94.9 pM, first compound 3.16 µM
[12] = second compound 94.9 pM, first compound 10 µM
[13] = second compound 0.0003 µM, first compound 0.0316 µM
[14] = second compound 0.0003 µM, first compound 0.1 µM
[15] = second compound 0.0003 µM, first compound 0.316 µM
[16] = second compound 0.0003 µM, first compound 1 µM
[17] = second compound 0.0003 µM, first compound 3.16 µM
[18] = second compound 0.0003 µM, first compound 10 µM
[19] = second compound 0.000949 µM, first compound 0.0316 µM
[20] = second compound 0.000949 µM, first compound 0.1 µM
[21] = second compound 0.000949 µM, first compound 0.316 µM
[22] = second compound 0.000949 µM, first compound 1 µM
[23] = second compound 0.000949 µM, first compound 3.16 µM
[24] = second compound 0.000949 µM, first compound 10 µM
[25] = second compound 0.003 µM, first compound 0.0316 µM
[26] = second compound 0.003 µM, first compound 0.1 µM
[27] = second compound 0.003 µM, first compound 0.316 µM
[28] = second compound 0.003 µM, first compound 1 µM
[29] = second compound 0.003 µM, first compound 3.16 µM
[30] = second compound 0.003 µM, first compound 10 µM

Structure (SMILES) | IC50 (second compound 30 pM) [µM] | IC50 (second compound 94.9 pM) [µM] | IC50 (second compound 0.0003 µM) [µM] | IC50 (second compound 0.000949 µM) [µM] | IC50 (second compound 0.003 µM) [µM] | viability, T/C [1] [%] | viability, T/C [2] [%] | viability, T/C [3] [%] | viability, T/C [4] [%] | viability, T/C [5] [%] | viability, T/C [6] [%] | viability, T/C [7] [%] | viability, T/C [8] [%] | viability, T/C [9] [%] | viability, T/C [10] [%] | viability, T/C [11] [%] | viability, T/C [12] [%] | viability, T/C [13] [%] | viability, T/C [14] [%] | viability, T/C [15] [%] | other results
CC(C)n1c(=O)n(C)c2cnc3cc(F)c(-c4ccc(OCCCN5CCCCC5)nc4)cc3c21 + COc1cc2c(cc1O)CCNC21CSC2c3c(OC(C)=O)c(C)c4c(c3C(COC1=O)N1C(O)C3Cc5cc(C)c(OC)c(O)c5C(C21)N3C)OCO4 | > 10 | > 10 | 0.868 | < 0.0316 | < 0.0316 | 105 | 99.5 | 98.2 | 92.5 | 83.7 | 50 | 96.1 | 84 | 78 | 72.7 | 64.4 | 48.7 | 68.7 | 62.7 | 54.7 | viability, T/C [16]: 50.4%; viability, T/C [17]: 41.6%; viability, T/C [18]: 31.1%; viability, T/C [19]: 48.7%; viability, T/C [20]: 45.6%; viability, T/C [21]: 35.3%; viability, T/C [22]: 25.1%; viability, T/C [23]: 19.9%; viability, T/C [24]: 18.1%; viability, T/C [25]: 15%; viability, T/C [26]: 5.65%; viability, T/C [27]: 1.44%; viability, T/C [28]: 0.39%; viability, T/C [29]: 0.32%; viability, T/C [30]: 0.46%
CC1COCCN1c1cc(-c2ccnn2C)c2ccnc(-c3ccn[nH]3)c2n1 (stereo not given) + COc1cc2c(cc1O)CCNC21CSC2c3c(OC(C)=O)c(C)c4c(c3C(COC1=O)N1C(O)C3Cc5cc(C)c(OC)c(O)c5C(C21)N3C)OCO4 | 0.156 | 0.102 | < 0.0316 | < 0.0316 | < 0.0316 | 81.9 | 53.9 | 43.1 | 42.9 | 40.7 | 38.9 | 71.7 | 50.1 | 37.5 | 38.5 | 40.6 | 41 | 46.4 | 37 | 32 | viability, T/C [16]: 30.1%; viability, T/C [17]: 43%; viability, T/C [18]: 38.3%; viability, T/C [19]: 27.4%; viability, T/C [20]: 25%; viability, T/C [21]: 21.3%; viability, T/C [22]: 25.9%; viability, T/C [23]: 18.1%; viability, T/C [24]: 13.9%; viability, T/C [25]: 11.5%; viability, T/C [26]: 10.2%; viability, T/C [27]: 8.78%; viability, T/C [28]: 5.28%; viability, T/C [29]: 0.36%; viability, T/C [30]: 0.46%
COc1cc(C)[nH]c(=O)c1CN1CCc2c(Cl)cc(C(OC)C3COC3)c(Cl)c2C1=O (stereo not given) + COc1cc2c(cc1O)CCNC21CSC2c3c(OC(C)=O)c(C)c4c(c3C(COC1=O)N1C(O)C3Cc5cc(C)c(OC)c(O)c5C(C21)N3C)OCO4 | > 10 | > 10 | > 10 | > 10 | < 0.0316 | 107 | 103 | 100 | 108 | 102 | 101 | 98.7 | 103 | 103 | 101 | 100 | 99.2 | 98 | 102 | 98.7 | viability, T/C [16]: 95%; viability, T/C [17]: 96.1%; viability, T/C [18]: 93.2%; viability, T/C [19]: 77.7%; viability, T/C [20]: 73.6%; viability, T/C [21]: 72.1%; viability, T/C [22]: 64.7%; viability, T/C [23]: 68.2%; viability, T/C [24]: 56%; viability, T/C [25]: 19.5%; viability, T/C [26]: 21.6%; viability, T/C [27]: 23.1%; viability, T/C [28]: 18.3%; viability, T/C [29]: 19%; viability, T/C [30]: 10.5%
COc1ccc([C@@H](O)c2cc(-c3ncnc4cc(N5CCOCC5)ccc34)c(F)cc2Cl)nn1 + COc1cc2c(cc1O)CCNC21CSC2c3c(OC(C)=O)c(C)c4c(c3C(COC1=O)N1C(O)C3Cc5cc(C)c(OC)c(O)c5C(C21)N3C)OCO4 | 6.58 | 4.8 | 1.52 | 0.379 | < 0.0316 | 103 | 106 | 103 | 93.2 | 77 | 34.7 | 108 | 106 | 101 | 96.7 | 62.6 | 27.5 | 103 | 108 | 97.7 | viability, T/C [16]: 68.3%; viability, T/C [17]: 18.7%; viability, T/C [18]: 5.37%; viability, T/C [19]: 79.3%; viability, T/C [20]: 81%; viability, T/C [21]: 55%; viability, T/C [22]: 17.5%; viability, T/C [23]: 1.86%; viability, T/C [24]: 0.35%; viability, T/C [25]: 22.5%; viability, T/C [26]: 19.1%; viability, T/C [27]: 9.89%; viability, T/C [28]: 1.71%; viability, T/C [29]: 1.27%; viability, T/C [30]: 1.18%
